According to patent US20230157283A1, “COMPOSITIONS AND METHODS FOR INHIBITING A FUNGAL PATHOGEN” (Tu Biomics, Inc., priority 2020, published 2023):

Legend:
Botrytis cinerea = test: Example 1: in vitro growth on agar plates containing organic acids; type: cell-based; set-up: Botrytis Treated (in vitro growth, mean±SE): unit not given here; settings: for Botrytis Treated (in vitro growth, mean±SE): n=4 plates
Procedure: (§1) In FIG. 1, n.s. indicates “not significant”, ppm indicates “parts per million”; L and (S) indicate levorotatory and sinister rotatory, respectively, and asterisks are used to indicate degrees of statistical significance according to standard conventions. 2-fold concentrated compositions of lactate and acetate were diluted 1:1 with a deionized water + agar solution to prepare agar plates
(§2) In a first round of experiments, the effect of acetate, and dextrorotary (d), levorotary (1), and racemic mixtures of enantiomers of lactate alone, or in combination with acetate was evaluated on the growth of Sclerotium cepivorum and Botrytis cinera (Tables 1A and 1B).
(§3) The effects of higher concentrations of acetate and lactate L (S) on growth was evaluated (Tables 2A and 2B).

Sclerotium cepivorum = test: as above; type: cell-based; set-up: Sclerotium Treated (in vitro growth, mean±SE): unit not given here; settings: for Sclerotium Treated (in vitro growth, mean±SE): n=4 plates
Procedure: as §1, §2, §3

[1] = 175 ppm, 7 days after inoculation
[2] = 175 ppm, 7 days, n.s./bracketed = not significant
[3] = 350 ppm, 7 days after inoculation
[4] = 350 ppm, 7 days, n.s./bracketed = not significant
[5] = 175 ppm, 7 days, negative = inhibition, n.s./bracketed = not significant
[6] = 350 ppm, 7 days, negative = inhibition, n.s./bracketed = not significant
[7] = first round, concentrations of Tables 1A and 1B
[8] = 200 ppm, 7 days after inoculation
[9] = 400 ppm, 7 days after inoculation
[10] = 600 ppm, 7 days, second round, n.s./bracketed = not significant
[11] = 600 ppm, 7 days, second round (higher concentrations)
[12] = higher concentrations, Tables 2A and 2B

Question: `C[C@@H](O)C(=O)O` [Lactate D (R), D-lactic acid, reference compound] was tested. Which “Botrytis Treated (in vitro growth, mean±SE)” value (Botrytis cinerea; [1]) did it give?
Answer: 23.42 ± 1.23

Question: And the “% Efficacy (percentage of mean growth in control plates)” value (Botrytis cinerea; [2])?
Answer: 49%

Question: And the “Botrytis Treated (in vitro growth, mean±SE)” value (Botrytis cinerea; [3])?
Answer: 23.82 ± 2.65

Question: And the “% Efficacy (percentage of mean growth in control plates)” value (Botrytis cinerea; [4])?
Answer: [35] %

Question: And the “Sclerotium Treated (in vitro growth, mean±SE)” value (Sclerotium cepivorum; [1])?
Answer: 14.09 ± 5.75

Question: And the “% Efficacy (percentage of mean growth in control plates)” value (Sclerotium cepivorum; [5])?
Answer: n.s.

Question: What about the “Sclerotium Treated (in vitro growth, mean±SE)” value (Sclerotium cepivorum; [3]) of the same compound?
Answer: 10.68 ± 3.19

Question: And the “% Efficacy (percentage of mean growth in control plates)” value (Sclerotium cepivorum; [6])?
Answer: n.s.

Question: What about the “effect on growth of S. cepivorum (in words)” value (Sclerotium cepivorum; [7]) of the same compound?
Answer: appeared to act as a carbon source

Question: `CC(=O)O` [Acetate, acetic acid] was tested. Which “Botrytis Treated (in vitro growth, mean±SE)” value (Botrytis cinerea; [8]) did it give?
Answer: 16.19 ± 1.09

Question: What about the “% Efficacy (percentage of mean growth in control plates)” value (Botrytis cinerea; 200 ppm, 7 days, negative = inhibition) of the same compound?
Answer: -33%

Question: And the “Botrytis Treated (in vitro growth, mean±SE)” value (Botrytis cinerea; [9])?
Answer: 12.37 ± 0.79

Question: What about the “% Efficacy (percentage of mean growth in control plates)” value (Botrytis cinerea; 400 ppm, 7 days, negative = inhibition) of the same compound?
Answer: -49%

Question: And the “% Efficacy (percentage of mean growth in control plates)” value (Botrytis cinerea; [10])?
Answer: n.s.[11] %

Question: And the “Botrytis Treated (in vitro growth, mean±SE)” value (Botrytis cinerea; 600 ppm, 7 days, second round)?
Answer: 22.25 ± 4.12

Question: What about the “% Efficacy (percentage of mean growth in control plates)” value (Botrytis cinerea; 800 ppm, 7 days, second round, n.s./bracketed = not significant) of the same compound?
Answer: n.s.[13] %

Question: What about the “Botrytis Treated (in vitro growth, mean±SE)” value (Botrytis cinerea; 800 ppm, 7 days, second round) of the same compound?
Answer: 22.73 ± 4.69

Question: What about the “Botrytis Treated (in vitro growth, mean±SE)” value (Botrytis cinerea; 1000 ppm, 7 days, second round) of the same compound?
Answer: 29.75 ± 3.76

Question: And the “% Efficacy (percentage of mean growth in control plates)” value (Botrytis cinerea; 1000 ppm, 7 days, second round, positive = more growth)?
Answer: 48%

Question: What about the “effect on growth of B. cinerea (in words)” value (Botrytis cinerea; [7]) of the same compound?
Answer: significantly inhibited growth

Question: And the “effect on growth of B. cinerea (in words)” value (Botrytis cinerea; summary of FIG. 1)?
Answer: inhibited growth of B. cinera at lower concentrations, but served as a carbon source at higher concentrations

Question: And the “Sclerotium Treated (in vitro growth, mean±SE)” value (Sclerotium cepivorum; [8])?
Answer: 3.63 ± 2.30

Question: And the “% Efficacy (percentage of mean growth in control plates)” value (Sclerotium cepivorum; 200 ppm, 7 days, negative = inhibition, n.s./bracketed = not significant)?
Answer: n.s. [23] %

Question: What about the “Sclerotium Treated (in vitro growth, mean±SE)” value (Sclerotium cepivorum; [9]) of the same compound?
Answer: 2.62 ± 1.85

Question: And the “% Efficacy (percentage of mean growth in control plates)” value (Sclerotium cepivorum; 400 ppm, 7 days, negative = inhibition, n.s./bracketed = not significant)?
Answer: n.s. [-39] %

Question: What about the “Sclerotium Treated (in vitro growth, mean±SE)” value (Sclerotium cepivorum; [11]) of the same compound?
Answer: 2.41 ± 0.57

Question: What about the “% Efficacy (percentage of mean growth in control plates)” value (Sclerotium cepivorum; [10]) of the same compound?
Answer: -86%

Question: What about the “% Efficacy (percentage of mean growth in control plates)” value (Sclerotium cepivorum; 800 ppm, 7 days, second round) of the same compound?
Answer: -97%

Question: And the “Sclerotium Treated (in vitro growth, mean±SE)” value (Sclerotium cepivorum; 800 ppm, 7 days, second round)?
Answer: 0.51 ± 0.20

Question: And the “effect on growth of S. cepivorum (in words)” value (Sclerotium cepivorum; [7])?
Answer: significantly inhibited growth

Question: And the “effect on growth of S. cepivorum (in words)” value (Sclerotium cepivorum; [12])?
Answer: increased with acetate concentration at all concentrations evaluated

Question: What does the source list for `C[C@H](O)C(=O)O` [Lactate L (S), L-lactic acid]?
Answer: Botrytis Treated (in vitro growth, mean±SE) (Botrytis cinerea; [1]): 23.59 ± 2.66; % Efficacy (percentage of mean growth in control plates) (Botrytis cinerea; [2]): [38] %; Botrytis Treated (in vitro growth, mean±SE) (Botrytis cinerea; [3]): 27.71 ± 4.97; % Efficacy (percentage of mean growth in control plates) (Botrytis cinerea; [4]): [71] %; Sclerotium Treated (in vitro growth, mean±SE) (Sclerotium cepivorum; [1]): 5.73 ± 1.72; % Efficacy (percentage of mean growth in control plates) (Sclerotium cepivorum; [5]): [-43] %; Sclerotium Treated (in vitro growth, mean±SE) (Sclerotium cepivorum; [3]): 5.17 ± 1.85; % Efficacy (percentage of mean growth in control plates) (Sclerotium cepivorum; [6]): [-46] %; % Efficacy (percentage of mean growth in control plates) (Sclerotium cepivorum; 450 ppm, 7 days, second round, n.s./bracketed = not significant): n.s.[-7] %; Sclerotium Treated (in vitro growth, mean±SE) (Sclerotium cepivorum; 450 ppm, 7 days, second round): 16.08 ± 3.55; Sclerotium Treated (in vitro growth, mean±SE) (Sclerotium cepivorum; [11]): 20.50 ± 4.10; % Efficacy (percentage of mean growth in control plates) (Sclerotium cepivorum; [10]): n.s.[18] %; effect on growth of S. cepivorum (in words) (Sclerotium cepivorum; [7]): inhibited growth; effect on growth of S. cepivorum (in words) (Sclerotium cepivorum; [12]): not effective; effect on growth of S. cepivorum (in words) (Sclerotium cepivorum; summary of FIG. 1): inhibited growth of S. cepivorum at lower concentrations, but served as a carbon source at higher concentrations

Question: Which results are given for `CC(O)C(=O)O` (racemic) [Lactate DL (RS racemic mix), reference compound]?
Answer: Botrytis Treated (in vitro growth, mean±SE) (Botrytis cinerea; [1]): 16.81 ± 1.23; % Efficacy (percentage of mean growth in control plates) (Botrytis cinerea; [2]): n.s.; Botrytis Treated (in vitro growth, mean±SE) (Botrytis cinerea; [3]): 26.15 ± 3.37; % Efficacy (percentage of mean growth in control plates) (Botrytis cinerea; [4]): n.s.; Sclerotium Treated (in vitro growth, mean±SE) (Sclerotium cepivorum; [1]): 2.06 ± 1.18; % Efficacy (percentage of mean growth in control plates) (Sclerotium cepivorum; [5]): -72%; Sclerotium Treated (in vitro growth, mean±SE) (Sclerotium cepivorum; [3]): 6.71 ± 2.90; % Efficacy (percentage of mean growth in control plates) (Sclerotium cepivorum; [6]): n.s.; effect on growth of S. cepivorum (in words) (Sclerotium cepivorum; [7]): inhibited growth
